Results from US5442111A, “3,5-di-tetriary-4-butyl-4-hydroxyphenyloxy- or tioalkylene N-hydroxyamides, N-hydroxythioamides, N-hydroxyureas, and N-hydroxythioureas as 5-lipoxygenase inhibitors” (Warner-Lambert Company, priority 1991, dated 1995).

Test system: 5-lipoxygenase
Test: ARBL whole cell 5-lipoxygenase assay (LTB4 formation in RBL-1 cells stimulated with calcium ionophore A23187, RIA)
Type: cell-based
Details: @ 10^-6 (concentration unit not given); rat RBL-1 whole cells, A23187 5 μM, 10 min preincubation
Procedure: ARBL WHOLE CELL 5-LIPOXYGENASE ASSAY
The rat basophilic leukemia cell line (RBL-1) was obtained from the American Type Culture Collection (Rockville, Md.).
A radioimmunoassay (RIA) kit of LTB was obtained from Amersham (Arlington Heights, Ill.) and Seragen (Boston, Mass.), respectively.
RBL-1 cells are grown in suspension culture in Eagle's minimum essential medium supplemented with 12% fetal bovine serum at 37° C. in an incubator supplied with air-5% carbon dioxide. Cells are harvested by centrifugation. They are washed with cold phosphate buffered saline pH 7.4 (PBS; NaCl, 7.1 g; NaHPO, 1.15 g; KHPO, 0.2 g; and KCl, 0.2 g/l). Cells are finally suspended in PBS containing 1.0 mM calcium at a density of […] cells/ml. Cells are incubated with and without test agent (in DMSO) (1% DMSO is without effect on arachidonic acid metabolism) for ten minutes at room temperature. Calcium ionophore A23187 (5 μM) is added and cells are incubated for seven minutes at 37° C. The reaction is stopped by chilling the tubes on ice for ten minutes. Cells are separated by centrifugation and the supernatant is stored at -20°. Aliquots (100 μl) are analyzed for LTB using the radioimmunoassay kit as provided by the supplier.
The following table contains biochemical data obtained from this whole cell assay as a percentage of inhibition.

Compound | ARBL @ 10^-6, % inhibition for LTB4
CNC(=S)N(O)C(C)CSc1cc(C(C)(C)C)c(O)c(C(C)(C)C)c1 (centres unmarked) [Example 1, N-[2-[[3,5-Bis(1,1-dimethylethyl)-4-hydroxyphenyl]thio]-1-methylethyl]-N-hydroxy-N'-methyl Thiourea] | 100%
CC(CSc1cc(C(C)(C)C)c(O)c(C(C)(C)C)c1)N(O)C(N)=O (centres unmarked) [Example 2, N-[2-[[3,5-Bis(1,1-dimethylethyl)-4-hydroxyphenyl]thio]-1-methylethyl]-N-hydroxy Urea] | 100%
